Assay results reported in ChEMBL document CHEMBL1770149, “Semisynthesis of triptolide analogues: effect of γ-lactone and C-14 substituents on cytotoxic activities” (Bioorg Med Chem Lett, 2011).
pIC50: −log10 of the molar value.

What was measured:
A549 = assay: Cytotoxicity against human A549 cells; assay type: functional, cell-based
HT-29 = assay: Cytotoxicity against human HT-29 cells; assay type: functional, cell-based

Row | Compound | pIC50 (A549) | pIC50 (HT-29)
1 | CC(C)[C@]12O[C@H]1[C@@H]1O[C@]13[C@]1(O[C@H]1C[C@H]1C4=C(CC[C@@]13C)C(=O)OC4)[C@@H]2O [TRIPTOLIDE] | 7.72 | 8.68
2 | Cc1occ2c1CC[C@H]1[C@H]2C[C@@H]2O[C@]23[C@]12O[C@H]2[C@@H]1O[C@]1(C(C)C)[C@@]3(C)O | < 4.87 | < 4.87
3 | CCc1c2c(nc3ccc(O)cc13)-c1cc3c(c(=O)n1C2)COC(=O)[C@]3(O)CC [7-ETHYL-10-HYDROXYCAMPTOTHECIN] | 7.33 | 8.23
4 | CC(C)[C@]12O[C@H]1[C@@H]1O[C@@]13[C@H]1CCC4=C(COC4=O)[C@@H]1C[C@@H]1O[C@@]13[C@]21CO1 | 7.28 | 9.19
5 | CC(C)[C@]12O[C@H]1[C@@H]1O[C@@]13[C@H]1CCC4=C(COC4=O)[C@@H]1C[C@@H]1O[C@@]13[C@@]2(C)O | 6.46 | 7.66
6 | CC(C)[C@]12O[C@H]1[C@@H]1O[C@@]13[C@H]1CCC4=C(COC4=O)[C@@H]1C[C@@H]1O[C@@]13[C@H]2O | 5.77 | 7.11
7 | CC(C)[C@]12O[C@H]1[C@@H]1O[C@@]13[C@@]1(C)CCC4=C(COC4=O)[C@@H]1C[C@@H]1O[C@@]13C2=O [TRIPTONIDE] | 7.28 | 8.08
8 | CC[C@@]1(O)[C@]23O[C@H]2C[C@H]2C4=C(CC[C@@H]2[C@@]32O[C@H]2[C@@H]2O[C@@]21C(C)C)C(=O)OC4 | 5.55 | 6.41
9 | CC(=O)O[C@@]12CO[C@@H]1C[C@H](O)[C@@]1(C)C(=O)[C@H](O)C3=C(C)[C@@H](OC(=O)[C@H](O)[C@@H](NC(=O)OC(C)(C)C)c4ccccc4)C[C@@](O)([C@@H](OC(=O)c4ccccc4)[C@H]21)C3(C)C [DOCETAXEL] | 8.92 | 9.12
10 | CCc1occ2c1CC[C@H]1[C@H]2C[C@@H]2O[C@@]23[C@H](O)[C@@]2(C(C)C)O[C@H]2[C@@H]2O[C@@]123 | < 4.87 | < 4.87
11 | Cc1occ2c1CC[C@H]1[C@H]2C[C@@H]2O[C@@]23[C@H](O)[C@@]2(C(C)C)O[C@H]2[C@@H]2O[C@@]123 | 5.11 | 5.70
12 | Cc1occ2c1CC[C@H]1[C@H]2C[C@@H]2O[C@]23[C@]12O[C@H]2[C@@H]1O[C@]1(C(C)C)[C@]3(C)O | < 4.87 | < 4.87
